In this assay the target is IDO1 (Homo sapiens, UniProt P14902). The assay can be described thus: IDO1 Cellular Assay in HeLa Cells Stimulated with IFNγ. Conditions: read-out: HeLa Cell Potency, IC50. Type of assay: cell-based.

Experimental findings from US12264134B2 (Merck Sharp & Dohme LLC, priority 2018, dated 2025) are described below.

SMILES strings stand for the structures.

IDO1, sequence (P14902 whole entry): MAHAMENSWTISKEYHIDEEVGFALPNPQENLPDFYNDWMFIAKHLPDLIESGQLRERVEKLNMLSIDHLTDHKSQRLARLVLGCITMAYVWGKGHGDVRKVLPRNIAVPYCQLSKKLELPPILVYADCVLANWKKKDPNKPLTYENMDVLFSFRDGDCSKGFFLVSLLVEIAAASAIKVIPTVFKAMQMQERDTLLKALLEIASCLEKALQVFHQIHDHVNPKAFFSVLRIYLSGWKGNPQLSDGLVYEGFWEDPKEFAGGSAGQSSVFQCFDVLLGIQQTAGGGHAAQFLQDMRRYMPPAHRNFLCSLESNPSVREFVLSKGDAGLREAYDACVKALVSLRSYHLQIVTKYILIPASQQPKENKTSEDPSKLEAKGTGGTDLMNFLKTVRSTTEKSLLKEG

As to `Cc1cccc(N2CCN(C(=O)Cn3nc(C(=O)N4CCC5(CC4)CNC(=O)N5C)c4c3C[C@H]3C[C@@H]43)CC2)c1C` [Example 227, 8-[(3bR,4aR)-1-{2-[4-(2,3-dimethylphenyl)piperazin-1-yl]-2-oxoethyl}-3b,4,4a,5-tetrahydro-1H-cyclopropa[3,4]cyclopenta[1,2-c]pyrazole-3-carbonyl]-1-methyl-1,3,8-triazaspiro[4.5]decan-2-one], the IC50 (usually the point on the concentration scale where inhibition reaches its midpoint) turned out to be 2.19 nM.
Then `Cc1c(N2CCN(C(=O)Cn3nc(C(=O)N4CCC(OCCO)CC4)c4c3C[C@H]3C[C@@H]43)CC2)cccc1C(F)(F)F` [Example 341, 2-((3bR,4aR)-3-(4-(2-hydroxyethoxy)piperidine-1-carbonyl)-3b,4,4a,5-tetrahydro-1H-cyclopropa[3,4]cyclopenta[1,2-c]pyrazol-1-yl)-1-(4-(2-methyl-3-(trifluoromethyl)phenyl)piperazin-1-yl)ethanone], with 1.64 nM; and `Cc1cccc(N2CCN(C(=O)Cn3nc(C(=O)N4CC5CCC4CC5)c4c3CCC4)CC2)c1C` [Example 116, 2-[3-(2-azabicyclo[2.2.2]octane-2-carbonyl)-5,6-dihydrocyclopenta[c]pyrazol-1(4H)-yl]-1-[4-(2,3-dimethylphenyl)piperazin-1-yl]ethan-1-one], with 11.6 nM; and `Cc1cccc(N2CCN(C(=O)Cn3nc(C(=O)N4C[C@@H](C)O[C@@H](C)C4)c4c3CCC4)CC23CC3)c1C` [Example 447, 2-(3-((2R,6S)-2,6-dimethylmorpholine-4-carbonyl)-5,6-dihydrocyclopenta[c]pyrazol-1(4H)-yl)-1-(4-(2,3-dimethylphenyl)-4,7-diazaspiro[2.5]octan-7-yl)ethanone], with 12.7 nM.
Take `Cc1c(Cl)cccc1N1CCN(C(=O)Cn2nc(C(=O)N3CC[C@H](O)[C@H](F)C3)c3c2CCC(F)C3)CC1` (stereo partly drawn) [Example 369, 1-(4-(3-chloro-2-methylphenyl)piperazin-1-yl)-2-(5-fluoro-3-((3R,4S)-3-fluoro-4-hydroxypiperidine-1-carbonyl)-4,5,6,7-tetrahydro-1H-indazol-1-yl)ethan-1-one]: the IC50 stood at 6.62 nM.
Then `Cc1cccc(N2CCN(C(=O)Cn3nc(C(=O)N4CCC(n5cncn5)CC4)c4c3CCC4)CC2)c1C` [Example 132, 1-[4-(2,3-dimethylphenyl)piperazin-1-yl]-2-{3-[4-(1H-1,2,4-triazol-1-yl)piperidine-1-carbonyl]-5,6-dihydrocyclopenta[c]pyrazol-1(4H)-yl}ethan-1-one], with 4.55 nM.
For `Cc1cccc(N2CCN(C(=O)Cn3nc(C(=O)N4CC5CCC4CC5O)c4c3CCC4)CC2)c1C` (centres unmarked) [Example 152, 1-[4-(2,3-dimethylphenyl)piperazin-1-yl]-2-[3-(5-hydroxy-2-azabicyclo[2.2.2]octane-2-carbonyl)-5,6-dihydrocyclopenta[c]pyrazol-1(4H)-yl]ethan-1-one] the value was 34.2 nM; for `Cc1cccc(N2CCN(C(=O)Cn3nc(C(=O)N4CC5CNC5C4)c4c3CCC4)CC2)c1C` (centres unmarked) [Example 199, 2-[3-(3,6-diazaspiro[3.2.0]heptane-3-carbonyl)-5,6-dihydrocyclopenta[c]pyrazol-1(4H)-yl]-1-[4-(2,3-dimethylphenyl)piperazin-1-yl]ethan-1-one], 19 nM.
Then `Cc1cccc(N2CCN(C(=O)Cn3nc(C(=O)N4CCN(C(=O)CO)C[C@@H]4C)c4c3CCC4)CC2)c1C` [Example 401, (S)-1-(4-(2,3-dimethylphenyl)piperazin-1-yl)-2-(3-(4-(2-hydroxyacetyl)-2-methylpiperazine-1-carbonyl)-5,6-dihydrocyclopenta[c]pyrazol-1(4H)-yl)ethanone], with 12.9 nM; and `Cc1ccc(F)cc1N1CCN(C(=O)Cn2nc(C(=O)N3C[C@@H](C)O[C@@H](C)C3)c3c2CCC3)CC1` [Example 75, 2-{3-[(2R,6S)-2,6-dimethylmorpholine-4-carbonyl]-5,6-dihydrocyclopenta[c]pyrazol-1(4H)-yl}-1-[4-(5-fluoro-2-methylphenyl)piperazin-1-yl]ethan-1-one], with 34.1 nM.
Consider `Cc1cccc(N2CCN(C(=O)Cn3nc(C(=O)N4CCCC(NC(N)=O)C4)c4c3C[C@H]3C[C@@H]43)CC2)c1C` (stereo partly drawn) [Example 272, N-{1-[(3bR,4aR)-1-{2-[4-(2,3-dimethylphenyl)piperazin-1-yl]-2-oxoethyl}-3b,4,4a,5-tetrahydro-1H-cyclopropa[3,4]cyclopenta[1,2-c]pyrazole-3-carbonyl]piperidin-3-yl}urea], for which the IC50 came to 16.3 nM.
Then `Cc1ccc(N2CCN(C(=O)Cn3nc(C(=O)N4C[C@@H](C)O[C@@H](C)C4)c4c3CCC4)CC2)c(C)c1` [Example 50, 2-{3-[(2R,6S)-2,6-dimethylmorpholine-4-carbonyl]-5,6-dihydrocyclopenta[c]pyrazol-1(4H)-yl}-1-[4-(2,4-dimethylphenyl)piperazin-1-yl]ethan-1-one], with 15.1 nM; and `CC(=O)NC1CCCN(C(=O)c2nn(CC(=O)N3CCN(c4cccc(C)c4C)CC3)c3c2CCC3)C1` (centres unmarked) [Example 185, N-[1-(1-{2-[4-(2,3-dimethylphenyl)piperazin-1-yl]-2-oxoethyl}-1,4,5,6-tetrahydrocyclopenta[c]pyrazole-3-carbonyl)piperidin-3-yl]acetamide], with 120 nM; and `Cc1cccc(N2CCN(C(=O)Cn3nc(C(=O)N4CCC5(CC4)COC(CO)C5)c4c3C[C@H]3C[C@@H]43)CC2)c1C` (stereo partly drawn) [Example 268, 1-[4-(2,3-dimethylphenyl)piperazin-1-yl]-2-{(3bR,4aR)-3-[3-(hydroxymethyl)-2-oxa-8-azaspiro[4.5]decane-8-carbonyl]-3b,4,4a,5-tetrahydro-1H-cyclopropa[3,4]cyclopenta[1,2-c]pyrazol-1-yl}ethan-1-one], with 1.25 nM.
With `Cc1cccc(N2CCN(C(=O)Cn3nc(C(=O)N4CC[C@H](O)[C@H](F)C4)c4c3C(O)CCC4)CC2)c1C` (single isomer, unassigned) [Example 25], the IC50 turned out to be 496 nM.
As to `Cc1cccc(N2CCN(C(=O)Cn3nc(C(=O)N4CCCC4)c4c3CCOC4)CC2)c1C` [Example 4, 1-[4-(2,3-dimethylphenyl)piperazin-1-yl]-2-[3-(pyrrolidine-1-carbonyl)-6,7-dihydro-4H-pyrano[4,3-c]pyrazol-1-yl]ethanone], the IC50 is 165 nM.
For `Cc1cccc(N2CCN(C(=O)Cn3nc(C(=O)N4C[C@@H](C)O[C@@H](C)C4)c4c3CCCCC4)CC2)c1C` [Example 410, 2-(3-((2R,6S)-2,6-dimethylmorpholine-4-carbonyl)-5,6,7,8-tetrahydrocyclohepta[c]pyrazol-1(4H)-yl)-1-(4-(2,3-dimethylphenyl)piperazin-1-yl)ethanone] the value was 4.97 nM; for `Cc1cccc(N2CCN(C(=O)Cn3nc(C(=O)N4CCN(C(=O)CO)CC4)c4c3CCC4)CC2)c1C` [Example 85, 1-[4-(2,3-dimethylphenyl)piperazin-1-yl]-2-{3-[4-(hydroxyacetyl)piperazine-1-carbonyl]-5,6-dihydrocyclopenta[c]pyrazol-1(4H)-yl}ethan-1-one], 26.5 nM; for `Cc1cccc(N2CCN(C(=O)Cn3nc(C(=O)N4CCN(CC(F)F)CC4)c4c3C[C@H]3C[C@@H]43)CC2)c1C` [Example 260, 2-{(3bR,4aR)-3-[4-(2,2-difluoroethyl)piperazine-1-carbonyl]-3b,4,4a,5-tetrahydro-1H-cyclopropa[3,4]cyclopenta[1,2-c]pyrazol-1-yl}-1-[4-(2,3-dimethyl-phenyl)piperazin-1-yl]ethan-1-one], 0.84 nM.
For `CC1=NC2(CCN(C(=O)c3nn(CC(=O)N4CCN(c5cccc(C)c5C)CC4)c4c3CCC4)CC2)C(=O)N1` [Example 134, 8-(1-{2-[4-(2,3-dimethylphenyl)piperazin-1-yl]-2-oxoethyl}-1,4,5,6-tetrahydrocyclopenta[c]pyrazole-3-carbonyl)-2-methyl-1,3,8-triazaspiro[4.5]dec-1-en-4-one] the value was 15.8 nM; for `Cc1cccc(N2CCN(C(=O)Cn3nc(C(=O)N4CC[C@@H](N)[C@@H](C)C4)c4c3CCC4)CC2)c1C` [Example 198, 2-{3-[(3S,4R)-4-amino-3-methylpiperidine-1-carbonyl]-5,6-dihydrocyclopenta[c]pyrazol-1(4H)-yl}-1-[4-(2,3-dimethylphenyl)piperazin-1-yl]ethan-1-one], 89.6 nM.
Then `C[C@@H]1CN(C(=O)c2nn(CC(=O)N3CCN(c4ccc(F)c(C(F)F)c4)CC3)c3c2CCC3)C[C@H](C)O1` [Example 58, 1-{4-[3-(difluoromethyl)-4-fluorophenyl]piperazin-1-yl}-2-{3-[(2R,6S)-2,6-dimethylmorpholine-4-carbonyl]-5,6-dihydrocyclopenta[c]pyrazol-1(4H)-yl}ethan-1-one], with 447 nM; and `Cc1cccc(N2CCN(C(=O)Cn3nc(C(=O)N4CCC5(C4)CC5(F)F)c4c3CCC4)CC2)c1C` (centres unmarked) [Example 171, 2-[3-(1,1-difluoro-5-azaspiro[2.4]heptane-5-carbonyl)-5,6-dihydrocyclopenta[c]pyrazol-1(4H)-yl]-1-[4-(2,3-dimethylphenyl)piperazin-1-yl]ethan-1-one], with 5.79 nM; and `Cc1cccc(N2CCN(C(=O)Cn3nc(C(=O)N4CC[S+]([O-])CC4)c4c3C[C@H]3C[C@@H]43)CC2)c1C` [Example 266, 4-[(3bR,4aR)-1-{2-[4-(2,3-dimethylphenyl)piperazin-1-yl]-2-oxoethyl}-3b,4,4a,5-tetrahydro-1H-cyclopropa[3,4]cyclopenta[1,2-c]pyrazole-3-carbonyl]-1lambda~4~,4-thiazinan-1-one], with 5.73 nM.
As to `Cc1cccc(N2CCN(C(=O)Cn3nc(C(=O)N4CC5C(N)C5C4)c4c3CCC4)CC2)c1C` (centres unmarked) [Example 196, 2-[3-(6-amino-3-azabicyclo[3.1.0]hexane-3-carbonyl)-5,6-dihydrocyclopenta[c]pyrazol-1(4H)-yl]-1-[4-(2,3-dimethylphenyl)piperazin-1-yl]ethan-1-one], the IC50 worked out at 103 nM.
Take `Cc1cccc(N2CCN(C(=O)Cn3nc(C(=O)N4CCOCC4CO)c4c3C[C@H]3C[C@@H]43)CC2)c1C` (stereo partly drawn) [Example 274, 1-[4-(2,3-dimethylphenyl)piperazin-1-yl]-2-{(3bR,4aR)-3-[3-(hydroxymethyl)morpholine-4-carbonyl]-3b,4,4a,5-tetrahydro-1H-cyclopropa[3,4]cyclopenta[1,2-c]pyrazol-1-yl}ethan-1-one]: the IC50 came out at 6.37 nM.
